Test results reported in publication PMC9714576, “Cell-penetrating peptide-conjugated copper complexes for redox-mediated anticancer therapy” (Frontiers in Pharmacology, 2022).

Experiments:
[1] = Ascorbate consumption experiment (ROS-generation capability, UV-vis); settings: ascorbic acid 100 µM, complex 2 µM, 50 mM NaCl/5 mM TRIS-HCl pH 7.2, max 5% DMSO, UV-vis at 265 nm
Method: All the spectra were recorded at room temperature either on an Agilent HP 8453, a Varian Cary 50 Bio, a Varian Cary 60 Bio or a Perkin Elmer Lambda 650 spectrophotometer, using 1 cm quart-cuvettes. Ascorbate consumption experiments were monitored by UV-vis at the maximum absorption band of the ascorbic acid (100 µM) at 265 nm for about 45 min. CuCl2 and the assayed complexes C1-C3 were added at a final concentration of 2 µM in 50 mM NaCl/5 mM TRIS-HCl buffer (pH 7.2), with a maximum of 5% of DMSO.
Prior to biological evaluation, and after proving that the new C2-C5 Cu(II) complexes hold the same metallic core as C1, the impact of the ligand substituents on their catalytic properties, and therefore, ROS-generating capabilities ([Peña et al., 2021]), were confirmed with the two simplest functionalized Cu(II) compounds (C2 and C3), as model compounds bearing oppositely-charged functional moieties. The consumption of ascorbate was measured by UV-vis spectroscopy, monitoring its characteristic absorbance at 265 nm. The correlation of ascorbate consumption with the generation of ROS has proven to be a reliable method to effectively monitor ROS production ([Alies et al., 2013]; [Chassaing et al., 2013]).

[2] = tested on: HeLa cells; assay: Cell-viability assay (PrestoBlue); type: cell-based, Human; settings: 24 h treatment, normalized for Cu concentration, mean ± SD, N ≥ 3
Method: (§1) Human cancer cells (cervix: HeLa; and breast: MCF7) were obtained from American Type Culture Collection (ATCC, Manassas, VA, United States). Cells were routinely cultured with DMEM (Dulbecco’s modified Eagle’s medium, Invitrogen) for HeLa, and with DMEM/F-12 (Dulbecco’s MEM/Nutrient Mixture F-12 Ham, Invitrogen) for MCF7, both supplemented with 10% heat-inactivated fetal bovine serum (FBS, Invitrogen) at 37°C in a humidified 5% CO2 atmosphere.
(§2) HeLa and MFC7 cells were seeded into a 96-well plate at a cell density of 3·10^3 cells/well in 100 µL of culture medium and allowed to grow overnight. The next day, the C1-C5 complexes were added to cells at a range concentration of 0–200 μM. […] The growth inhibitory effect of the complexes was measured at 24 h using the PrestoBlue Cell Reagent (Life Technologies) assay. […] After 2 h incubation (37°C, 5% CO2), the fluorescence of each well was measured at 572 nm after excitation at 531 nm with a Microplate Reader Victor3 (Perkin Elmer). Cytotoxicity was evaluated by relative cell viability (%) for each sample related to the control well. The IC50 values were calculated from the obtained cell viability results. […] Cells were allowed then to evolve until a total incubation time of 72 h and the cell viability was measured with PrestoBlue®, as beforehand detailed.

[3] = tested on: MCF7 cells; assay: Cell-viability assay (PrestoBlue); type: cell-based, Human; settings: MCF7, 24 h treatment, normalized for Cu concentration, mean ± SD, N ≥ 3
Method: as §1, §2

For [Cl][Cu][Cl] [CuCl2, copper(II) chloride], the “Time to (almost) total ascorbate consumption” value [1] was about 20 min, the IC50 [2] was at least 200 µM and the IC50 [3] was at least 200 µM.
